The values below come from article PMC3651789 (Current biology : CB, 2013).

One assay deals with T1, AEX-2/GPCR (Caenorhabditis elegans, UniProt G5ECD9).
T1 sequence (G5ECD9 1-321): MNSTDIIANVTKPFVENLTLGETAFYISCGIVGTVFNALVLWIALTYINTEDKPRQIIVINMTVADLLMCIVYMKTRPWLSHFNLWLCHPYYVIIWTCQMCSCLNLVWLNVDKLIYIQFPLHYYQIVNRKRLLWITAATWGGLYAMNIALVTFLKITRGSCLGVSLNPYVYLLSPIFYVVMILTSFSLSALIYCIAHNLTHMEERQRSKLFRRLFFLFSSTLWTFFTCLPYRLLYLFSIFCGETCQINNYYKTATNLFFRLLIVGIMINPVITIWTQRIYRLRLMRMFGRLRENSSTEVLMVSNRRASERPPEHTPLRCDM
In words: In vitro cellular assay for AEX-2/GPCR activation by NLP-40-derived peptides. Format: cell-based, C. elegans. To be noted: for activation of AEX-2/GPCR (in words): CHO/mtAEQ/Gα16 cells transfected with AEX-2/GPCR, aequorin luminescence, all concentrations tested.

Assay [1] relates to enteric muscle contractions (Exp). In words: Enteric muscle contraction. In kind it is in vivo, C. elegans. To be noted: peptide injection; data not shown.

Consider APSAPAGLEEKL [NLP-40 P1], for which the “activation of AEX-2/GPCR (in words)” value on AEX-2/GPCR is listed as “failed to activate AEX-2/GPCR at all concentrations tested”.
As for MVAWQPM [NLP-40 P3-1], the “activation of AEX-2/GPCR (in words)” value on AEX-2/GPCR is on record as “able to activate AEX-2/GPCR”. Further, at AEX-2/GPCR (CHO/mtAEQ/Gα16 cells, NLP-40 P3-1 compared to NLP-40 P3-2), the “relative potency at AEX-2/GPCR (in words)” value is on record as “more potent ligand for AEX-2/GPCR”. The “induction of enteric muscle contractions (Exp) (in words)” value in assay [1] is “failed to induce robust enteric muscle contractions (Exp)”.
Regarding VAWQPM [NLP-40 P3-2], the “activation of AEX-2/GPCR (in words)” value on AEX-2/GPCR was “able to activate AEX-2/GPCR”.
